Measurements as given in patent US8324251B2, “Cyclic modulators of chemokine receptor activity” (Bristol-Myers Squibb Company, priority 2006, dated 2012).
Where a name gives a salt, the structure may show the parent alone.

Target: T1, CCR1 (Homo sapiens, UniProt P32246)
T1 construct: the THP-1 cell line, which expresses the endogenous CCR1 receptor; endogenous in cells; host or cells: THP-1 cells (human monocytic cell line)
T1 sequence (P32246 1-355): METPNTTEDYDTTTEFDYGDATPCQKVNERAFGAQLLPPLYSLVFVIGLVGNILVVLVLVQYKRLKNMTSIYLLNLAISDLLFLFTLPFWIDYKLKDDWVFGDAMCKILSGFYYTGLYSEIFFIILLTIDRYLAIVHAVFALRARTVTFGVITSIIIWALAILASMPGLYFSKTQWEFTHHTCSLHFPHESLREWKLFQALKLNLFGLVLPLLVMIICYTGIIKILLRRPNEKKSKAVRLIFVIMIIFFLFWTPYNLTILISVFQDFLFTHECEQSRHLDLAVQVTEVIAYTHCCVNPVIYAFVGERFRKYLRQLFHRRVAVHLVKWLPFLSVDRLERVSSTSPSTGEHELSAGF
Experiment: Antagonism of MIP-1α binding to human THP-1 cells (125-I MIP-1α radioligand binding)
Details: 125-I labeled human MIP-1α, THP-1 cells expressing endogenous CCR1; read-out: CCR1 Binding Ki (n = 1 unless otherwise noted)
Procedure: Antagonism of MIP-1α Binding to Human THP-1 Cells
Compounds of the present invention have activity in the antagonism of MIP-1α binding to human THP-1 cells described here.
Millipore filter plates (#MABVN1250) are treated with 100 μl of binding buffer (0.5% bovine serum albumin, 20 mM HEPES buffer and 5 mM magnesium chloride in RPMI 1640 media) for thirty minutes at room temperature. To measure binding, 50 μl of binding buffer, with or without a known concentration of compound, is combined with 50 μl of ^125-I labeled human MIP-1α (to give a final concentration of […] radioligand) and 50 μl of binding buffer containing 5×10^5 cells. Cells used for such binding assays can include the THP-1 cell line, which expresses the endogenous CCR1 receptor, or human peripheral blood mononuclear cells, isolated by Ficoll-Hypaque gradient centrifugation, or human monocytes (Weiner et al., J. Immunol. Methods, 1980, 36, 89). The mixture of compound, cells and radioligand is incubated at room temperature for thirty minutes. Plates are placed onto a vacuum manifold, vacuum applied, and the plates washed three times with binding buffer containing 0.5M NaCl. The plastic skirt is removed from the plate, the plate allowed to air dry, the wells punched out and counted. The percent inhibition of binding is calculated using the total counts obtained in the absence of any competing compound and the background binding determined by addition of 100 nM MIP-1α in place of the test compound.
Compounds of the present invention were tested in the assay described immediately above and the results, including results from the chiral separation of Example 1c, shown in Table 2 below were obtained.

Ki [nM] | SMILES
4.49 ± 1.15 | NC(=O)Nc1cc(Cl)ccc1OCC(O)C1CCN(Cc2ccc(Cl)cc2)CC1 (racemic) [Example 1a, 1-(5-Chloro-2-(2-(1-(4-chlorobenzyl)piperidin-4-yl)-2-hydroxyethoxy)phenyl)urea, TFA salt]
111 | OC(COc1ccc(Cl)cc1)C1CCN(Cc2ccc(Cl)cc2)CC1 (racemic) [Example 1i, 1-(1-(4-Chlorobenzyl)piperidin-4-yl)-2-(4-chlorophenoxy)ethanol, TFA salt]
6440 | OC(COc1ccc(Cl)cc1)C1CCN(Cc2ccccc2)CC1 (racemic) [Example 1l, 1-(1-Benzylpiperidin-4-yl)-2-(4-chlorophenoxy)ethanol, TFA salt]
1500 | NC(=O)Nc1cc(Cl)ccc1OCC(O)C1CCN(Cc2ccc(Cl)c(Cl)c2)CC1 (single isomer, unassigned) [1c Enantiomer 1]
6.1 ± 0.71 | NC(=O)Nc1cc(Cl)ccc1OCC(O)C1CCN(Cc2ccc(Cl)c(Cl)c2)CC1 (single isomer, unassigned) [1c Enantiomer 2]
